How the values were obtained:
[1] = tested on: Leishmania donovani; test: (§1) GSK_TCAKS: pIC50 Leishmania donovani Imaging: THP-1 Host Macrophages. Assay plates (384-well) were prepared by adding 250nL of compound to each well. For single shot assay, the final compound concentration was 5 uM. […] Automated image analysis was performed with a script developed on Acapella High Content Imaging and Analysis Software (PerkinElmer). Output: THP-1 cell count were reported for each well.; assay type: functional, organism-based, Homo sapiens
[2] = tested on: Trypanosoma cruzi; test: (§2) GSK_TCAKS: pIC50 Trypanosoma cruzi Imaging: Amastigotes/Cell. […] Cells were then washed once with PBS before infection. T. cruzi trypomastigotes, collected at days 5 to 8 after infection from LLC-MK2 parasite infected cultures, were allowed to swim out for 4h at 37C from a centrifuged pellet (2,500 rpm/10 min/room temperature). Trypomastigotes were then collected and counted in a CASY Cell Counter. Trypomastigotes, in supplemented DMEM, were added to H9c2 cultures in a multiplicity of infection of 1 and incubated for 18 h. Cells were washed once with PBS before incubation of the infected H9c2 monolayer with trypsin (Life-Technologies) to detach cells from the flask. Cells were counted in a CASY Cell Counter using a 150 um capillary and their density set at 5 * 10^4 cells per mL in supplemented assay DMEM. Infected H9c2 were dispensed into 384-well poly-lysine coated assay plates at 50uL per well using a Multidrop Combi dispenser. After seeding them, the plates were incubated at 37C, 5% CO2 for 72h. Cultures were then fixed and stained by addition of 50 uL of a solution containing 8% formaldehyde and 4 uM DRAQ5 DNA dye (BioStatus, UK) per well. […] Five images were collected per well for reliable statistical analysis. Automated image analysis was performed with a script developed on Acapella High Content Imaging and Analysis Software (PerkinElmer). Output: number of amastigotes per cell as infection level measurement.; assay type: functional, organism-based, Rattus norvegicus; details: H9c2, 4 h
[3] = tested on: Trypanosoma brucei brucei; test: GSK_TCAKS: pIC50 Trypanosoma brucei viability assay using luminiscence. Assay plates (1536-well) were prepared. T. brucei cultures were harvested and counted in a CASY cell counter. A parasite suspension was prepared at a final concentration of 5 * 10^4 cells/mL in complete HMI9 medium and 6uL was dispensed to all wells containing compounds using a Multidrop Combi dispenser. 6uL of HMI9 media with 0.4% DMSO were dispensed to control columns. Plates were incubated for 24 h at 37C, 5% CO2 then tempered for 10 min at room temperature. ATP content was quantified by adding 4 uL of CellTiter-Glo Reagent (Promega) according to the manufacturer's instructions. Luminescence was measured using a ViewLux.; assay type: functional, organism-based; details: Lister 427, CASY
[4] = GSK_TCAKS: pIC50 HepG2 human cell line viability assay using luminiscence. […] Seeding density was checked to ensure that new mono-layers were not more than 50% confluent at the time of harvesting. Cell suspension was added to 500 mL of the same medium at a final density of 1.2 * 10^5 cells/mL. This cell suspension was dispensed (25 uL, 3000 cells per well) into 384-well clear-bottom plates using a Multidrop Combi dispenser. Prior to addition of the cell suspension, the screening compounds (250 nL) were pre-dispensed into the plates with an Echo liquid handler. Plates were incubated for 48 h at 37C, 5% CO2. After incubation, plates equilibrated at room temperature for 30 min before proceeding to develop the luminescent signal. The signal developer, CellTiter-Glo Reagent, was allowed to equilibrate at room temperature for 30 min and added to the plates (25uL per well) using a Multidrop Combi dispenser. Plates were left for 10 min at room temperature for stabilization and then read using a ViewLux.; assay type: toxicity, cell-based
[5] = tested on: Trypanosoma cruzi; test: GSK_TCAKS: pIC50 Trypanosoma cruzi viability assay using beta-GAL activity. This assay was run at single shot at 5uM compound concentration per well. The biological reagents consisted of NIH-3T3 host cells and trypomastigotes parasitic cells; both cell types were set to a 3.3 * 10^5 cells/mL dilution in assay DMEM by means of a CASY cell counter device using a 60um capillary. 6 uL of the mixture were dispensed per well (about 1 * 10^3 host-cells and 1 * 10^3 parasites) with a Multidrop Combi dispenser. […] In all wells, the percentage of DMSO never exceeded 0.5%. Plates incubated for four days at 37C, 5% CO2. The substrate used for the assay fluorescence intensity (FLINT) readout was resorufin-beta-D-galactopiranoside (Sigma-Aldrich) at 5uM per well. It was diluted in PBS supplemented with the soft detergent Igepal (Fluka).; assay type: functional, organism-based, Mus musculus; details: Tulahuen, NIH3T3
[6] = tested on: Trypanosoma cruzi; test: as §2, with “H2C9” for “Trypanosoma cruzi”, “H9c2 Host Cardiomyocytes.” for “Amastigotes/Cell.”, “Number” for “number”, “H9c2 Host Cardiomyocytes nuclei to determine drug-related cytotoxicity.” for “amastigotes per cell as infection level measurement.”; assay type: functional, organism-based, Rattus norvegicus; details: H9c2, 4 h
[7] = tested on: Leishmania donovani; test: GSK_TCAKS: pIC50 Leishmania donovani viability assay using fluorescence intensity. Assay plates (1536-well) were prepared by adding 30nL per well of compound. For single shot assay, the final compound concentration was 5uM. […] Briefly, eGFP LdBOB axenic amastigotes were harvested, fixed and counted in a CASY cell counter (Roche-Applied Science). A final concentration of 1.5 * 10^5 cells per well were prepared in amastigote media containing 500 U/mL penicillin/streptomycin (Invitrogen) and 6uL was dispensed to each experimental well using a Multidrop Combi dispenser (Thermo Scientific). 6uL of assay media was dispensed to control columns used as reference for 100% compound response. Following incubation for 72 h at 37C, 5% CO2, 2 uL of resazurin was added to each well at a final concentration of 0.5 mM in phosphate buffered saline (PBS) with IGEPAL (Sigma-Aldrich), 0.05% (v/v).; assay type: functional, organism-based
[8] = tested on: Leishmania donovani; test: as §1, with “Infected” for “THP-1 Host”, “Percent of infected macrophage cells” for “THP-1 cell count”; assay type: functional, organism-based, Homo sapiens; details: THP-1
[9] = tested on: Leishmania donovani; test: as §1, with “Amastigotes/Macrophages.” for “THP-1 Host Macrophages.”, “Average number of amastigotes per macrophage” for “THP-1”, “cell” for “cell count”; assay type: functional, organism-based, Homo sapiens; details: THP-1
[10] = tested on: Trypanosoma brucei brucei; test: GSK_TCAKS: pIC50 Trypanosoma brucei viability assay using fluorescence intensity. Assay plates (1536-well) were prepared by dispensing 25nL of compound solution per well using an Echo acoustic dispenser (Labcyte).; assay type: functional, organism-based; details: Lister 427, 2 h
[11] = tested on: Trypanosoma cruzi; test: GSK_TCAKS: pIC50 Trypanosoma cruzi Imaging: Infected Cells. […] Cells were then washed once with PBS before infection. T. cruzi trypomastigotes, collected at days 5 to 8 after infection from LLC-MK2 parasite infected cultures, were allowed to swim out for 4h at 37C from a centrifuged pellet (2,500 rpm/10 min/room temperature). Trypomastigotes were then collected and counted in a CASY Cell Counter. Trypomastigotes, in supplemented DMEM, were added to H9c2 cultures in a multiplicity of infection of 1 and incubated for 18 h. Cells were washed once with PBS before incubation of the infected H9c2 monolayer with trypsin (Life-Technologies) to detach cells from the flask. Cells were counted in a CASY Cell Counter using a 150 um capillary and their density set at 5 * 10^4 cells per mL in supplemented assay DMEM. Infected H9c2 were dispensed into 384-well poly-lysine coated assay plates at 50uL per well using a Multidrop Combi dispenser. After seeding them, the plates were incubated at 37C, 5% CO2 for 72h. Cultures were then fixed and stained by addition of 50 uL of a solution containing 8% formaldehyde and 4 uM DRAQ5 DNA dye (BioStatus, UK) per well. […] Five images were collected per well for reliable statistical analysis. Automated image analysis was performed with a script developed on Acapella High Content Imaging and Analysis Software (PerkinElmer). Output: percentage of infected cells per well as a second infection marker.; assay type: functional, organism-based, Rattus norvegicus; details: H9c2, 4 h
[12] = molecular target: Sterol 14-alpha demethylase (Trypanosoma cruzi (strain CL Brener), UniProt Q7Z1V1); test: GSK_TCAKS: pIC50 CYP51 from Trypanosoma cruzi.; assay type: functional
Chain of Sterol 14-alpha demethylase (Q7Z1V1 whole entry): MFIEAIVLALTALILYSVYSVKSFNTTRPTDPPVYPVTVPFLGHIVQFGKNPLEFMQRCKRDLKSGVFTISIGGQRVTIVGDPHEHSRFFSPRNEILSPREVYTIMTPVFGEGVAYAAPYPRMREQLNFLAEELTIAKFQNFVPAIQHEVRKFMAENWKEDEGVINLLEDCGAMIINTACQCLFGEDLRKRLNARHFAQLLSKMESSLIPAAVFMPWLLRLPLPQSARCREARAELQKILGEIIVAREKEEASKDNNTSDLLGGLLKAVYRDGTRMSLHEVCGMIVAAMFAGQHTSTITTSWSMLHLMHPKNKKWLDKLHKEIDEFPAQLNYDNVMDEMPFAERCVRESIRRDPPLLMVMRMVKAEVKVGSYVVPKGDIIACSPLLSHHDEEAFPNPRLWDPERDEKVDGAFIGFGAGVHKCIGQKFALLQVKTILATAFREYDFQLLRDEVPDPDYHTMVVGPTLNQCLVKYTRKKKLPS

## O=C(Nc1nc(-c2ccccn2)cs1)c1ccccc1-n1cnnn1
[1]
  IC50: 5.01 µM
[2]
  IC50: 2 µM
[3]
  IC50: 0.631 µM
[4]
  IC50 at 48 h: 1.58 µM
[5]
  IC50: 3.55 µM
[6]
  IC50: 5.01 µM
[7]
  IC50: 3.16 µM
[8]
  IC50: 6.31 µM
[9]
  IC50: 3.98 µM
[10]
  IC50: 0.631 µM
[11]
  IC50: 3.16 µM
[12]
  IC50: > 100 µM

## O=C(NCCc1csc(-c2ccc(F)cc2)n1)c1cccs1
[1]
  IC50: > 50.1 µM
[2]
  IC50: 0.251 µM
[3]
  IC50: 0.2 µM
[4]
  IC50 at 48 h: > 100 µM
[5]
  IC50: 0.398 µM
[6]
  IC50: > 50.1 µM
[7]
  IC50: > 50.1 µM
[8]
  IC50: > 50.1 µM
[9]
  IC50: 20 µM
[10]
  IC50: 0.251 µM
[11]
  IC50: 0.398 µM
[12]
  IC50: 25.1 µM

## COc1cccc2sc(CN(C)C(=O)C3CNCCN3c3ccc(F)cc3)c(C)c12 (stereo unspecified)
[1]
  IC50: 12.6 µM
[2]
  IC50: 0.158 µM
[3]
  IC50: 0.251 µM
[4]
  IC50 at 48 h: 12.6 µM
[5]
  IC50: 0.398 µM
[6]
  IC50: 7.94 µM
[7]
  IC50: 31.6 µM
[8]
  IC50: 6.31 µM
[9]
  IC50: 3.98 µM
[10]
  IC50: 0.158 µM
[11]
  IC50: 0.2 µM
[12]
  IC50: 0.251 µM

## CCCCCNC(=O)c1c[nH]c2ccc(S(=O)(=O)N(C)c3ccc(OCC)cc3)cc2c1=O
[1]
  IC50: > 50.1 µM
[2]
  IC50: > 50.1 µM
[3]
  IC50: 0.251 µM
[4]
  IC50 at 48 h: > 100 µM
[5]
  IC50: 31.6 µM
[6]
  IC50: > 50.1 µM
[7]
  IC50: > 50.1 µM
[8]
  IC50: > 50.1 µM
[9]
  IC50: > 50.1 µM
[10]
  IC50: 0.316 µM
[11]
  IC50: > 50.1 µM
[12]
  IC50: 1.58 µM

## CCOc1ccc2nc(NC(=O)c3ccc([N+](=O)[O-])s3)sc2c1
[1]
  IC50: > 50.1 µM
[2]
  IC50: 1 µM
[3]
  IC50: 2.51 µM
[4]
  IC50 at 48 h: 31.6 µM
[5]
  IC50: 1.78 µM
[6]
  IC50: 10 µM
[7]
  IC50: 2.51 µM
[8]
  IC50: 6.31 µM
[9]
  IC50: 5.01 µM
[10]
  IC50: 1.26 µM
[11]
  IC50: 1.26 µM
[12]
  IC50: > 100 µM

## O=C(NCC(c1cccs1)N1CCOCC1)c1ccc([N+](=O)[O-])o1 (stereo unspecified)
[1]
  IC50: 25.1 µM
[2]
  IC50: 15.8 µM
[3]
  IC50: 0.316 µM
[4]
  IC50 at 48 h: 20 µM
[5]
  IC50: 3.16 µM
[6]
  IC50: 5.01 µM
[7]
  IC50: 31.6 µM
[8]
  IC50: 25.1 µM
[9]
  IC50: 15.8 µM
[10]
  IC50: 0.316 µM
[11]
  IC50: 15.8 µM
[12]
  IC50: 10 µM

## CCN(CC)c1ncc(C(=O)c2ccc([N+](=O)[O-])o2)s1
[1]
  IC50: 6.31 µM
[2]
  IC50: 7.94 µM
[3]
  IC50: 0.398 µM
[4]
  IC50 at 48 h: 15.8 µM
[5]
  IC50: 3.98 µM
[6]
  IC50: 5.01 µM
[7]
  IC50: 5.01 µM
[8]
  IC50: 10 µM
[9]
  IC50: 10 µM
[10]
  IC50: 0.1 µM
[11]
  IC50: 12.6 µM
[12]
  IC50: 39.8 µM

## O=C(Nc1nc(-c2ccccn2)cs1)C1CCc2ccccc2C1 (stereo unspecified)
[1]
  IC50: 7.94 µM
[2]
  IC50: 2 µM
[3]
  IC50: 3.16 µM
[4]
  IC50 at 48 h: 39.8 µM
[5]
  IC50: 2 µM
[6]
  IC50: 3.98 µM
[7]
  IC50: 5.01 µM
[8]
  IC50: 0.631 µM
[9]
  IC50: 0.398 µM
[10]
  IC50: 3.16 µM
[11]
  IC50: 2.51 µM
[12]
  IC50: 25.1 µM

From ChEMBL document CHEMBL3430912, “GSK Tres Cantos Anti-Kinetoplastid Screening (TCAKS) Data”
